{"source": "patent US6489157B1", "about": "“Medium for cultivating microorganisms” (priority 1999, dated 2002)", "key": {"isolate of CHL004": {"system": "isolate of CHL004", "assay": "Use as phosphate source for growth", "format": "cell-based, Pseudomonas aeruginosa", "text": "In Wanner (16), it is noted that organophosphates can be directly transported to the cytoplasm of E. coli and S. typhimurium, or they can be hydrolyzed in the periplasm by phosphatases, after which the phosphate is transported to the cytoplasm."}, "P. aeruginosa CHL004": {"system": "P. aeruginosa CHL004", "assay": "Growth in medium with Pb(NO3)2", "format": "cell-based, Pseudomonas aeruginosa", "details": "Pb(NO3)2 increased from zero to 1 mM in BPTN", "method": "All cultures were grown at 29° C. in a water bath incubator with shaking at a speed of 200 rpm. The cultures were inoculated with a saturated overnight culture in BPTN. Overnight cultures (˜18 hours) were prepared from −80° C. freezer stocks. Data were typically obtained after approximately three or more doublings, and only data between an optical density at 650 nm (OD650) of 0.1 and half the saturation cell density were used for analysis.\nGrowth rate and saturation cell density studies. The OD650 was measured using a Perkin Elmer Lambda 2 UV/VIS spectrometer. The cell path length was 10 mm. Duplicate 100 μL aliquots were taken from growing cultures and diluted with 900 microliters of a solution having a minimum concentration of 62 mM NaNO3. The same diluent was used within a given growth rate curve. Sixty two mM NaNO3 was determined to be isosmotic with BPTN. Osmolalities were determined using a Precision Instruments microOsmette freezing point depression osmometer calibrated at 0, 100, and 500 mOsm.\nGrowth in medium with Pb(NO3)2. […] The variances from the growth rate curve fittings for BPTN+1 mM Pb(NO3) 2 are typically equal to or smaller than those for BPTN. […] A linear relationship between CFU/mL and OD650 is expected if the extent of scattering is proportional to the cell density in the cell slurry. […]"}, "[1]": {"assay": "Solubility of Pb(NO3)2 in BPTN, ICAP trace metal analysis before and after 0.2 micrometer filtering", "format": "physicochemical", "details": "n=4"}}, "data": [{"compound": "N[C@@H](COP(=O)(O)O)C(=O)O", "note": "[O-Phospho-L-serine]", "values": [{"measurement": "use as a phosphate source", "setting": "isolate of CHL004", "value": "can be used as a phosphate source"}]}, {"compound": "O=[N+]([O-])[O-].O=[N+]([O-])[O-].[Pb+2]", "note": "[Pb(NO3)2]", "values": [{"measurement": "change of growth rate constant of CHL004 with Pb(NO3)2 concentration", "setting": "P. aeruginosa CHL004", "value": "decreases"}, {"measurement": "Pb^2+ concentration after filtering", "setting": "[1]; 0.2 micrometer PES syringe filter", "value": "25.1 ± 1.3", "unit": "mM"}, {"measurement": "Pb^2+ concentration before filtering", "setting": "[1]", "value": "24.0 ± 0.6", "unit": "mM"}]}]}
